# What was measured:
# Type in all cases: functional
# Conditions in all cases: read-out: ED50 (the source's name)
# HT-29 = assay: Cytotoxicity against human HT-29 cells
# MCF7 = assay: Cytotoxicity against human MCF7 cells
# A549 = assay: Cytotoxicity against human A549 cells
compound,measurement,setting,value
COc1cc([C@H]2OC[C@H](Cc3cc(OC)c(O)c(OC)c3)[C@@H]2CO)ccc1O [JUSTICIRESINOL],EC50,HT-29,18.3 µg/mL
same,EC50,MCF7,22.3 µg/mL
same,EC50,A549,31.3 µg/mL

# Reference: ChEMBL document CHEMBL1150205, “Justiciresinol, a new furanoid lignan from Justicia glauca” (1991)
